Assay results reported in US9586951B2 (FUJIFILM Corporation, priority 2013, dated 2017).

biological target: T1, ATM (Homo sapiens, UniProt Q13315); experiment: ATM inhibition test (phosphorylation of Chk2 generated by ionizing radiation, AlphaScreen SureFire); assay type: cell-based; conditions: phosphorylated Chk2 in NCI-H460 cells, ionizing radiation 8Gy, 1 hour after test compound treatment; read-out: ATM inhibitory activity
T1 construct: detecting phosphorylation of Chk2 in a human non-small cell lung cancer cell line NCI-H460 (ATCC company); host or cells: NCI-H460 human non-small cell lung cancer cells
T1 sequence (Q13315 whole entry): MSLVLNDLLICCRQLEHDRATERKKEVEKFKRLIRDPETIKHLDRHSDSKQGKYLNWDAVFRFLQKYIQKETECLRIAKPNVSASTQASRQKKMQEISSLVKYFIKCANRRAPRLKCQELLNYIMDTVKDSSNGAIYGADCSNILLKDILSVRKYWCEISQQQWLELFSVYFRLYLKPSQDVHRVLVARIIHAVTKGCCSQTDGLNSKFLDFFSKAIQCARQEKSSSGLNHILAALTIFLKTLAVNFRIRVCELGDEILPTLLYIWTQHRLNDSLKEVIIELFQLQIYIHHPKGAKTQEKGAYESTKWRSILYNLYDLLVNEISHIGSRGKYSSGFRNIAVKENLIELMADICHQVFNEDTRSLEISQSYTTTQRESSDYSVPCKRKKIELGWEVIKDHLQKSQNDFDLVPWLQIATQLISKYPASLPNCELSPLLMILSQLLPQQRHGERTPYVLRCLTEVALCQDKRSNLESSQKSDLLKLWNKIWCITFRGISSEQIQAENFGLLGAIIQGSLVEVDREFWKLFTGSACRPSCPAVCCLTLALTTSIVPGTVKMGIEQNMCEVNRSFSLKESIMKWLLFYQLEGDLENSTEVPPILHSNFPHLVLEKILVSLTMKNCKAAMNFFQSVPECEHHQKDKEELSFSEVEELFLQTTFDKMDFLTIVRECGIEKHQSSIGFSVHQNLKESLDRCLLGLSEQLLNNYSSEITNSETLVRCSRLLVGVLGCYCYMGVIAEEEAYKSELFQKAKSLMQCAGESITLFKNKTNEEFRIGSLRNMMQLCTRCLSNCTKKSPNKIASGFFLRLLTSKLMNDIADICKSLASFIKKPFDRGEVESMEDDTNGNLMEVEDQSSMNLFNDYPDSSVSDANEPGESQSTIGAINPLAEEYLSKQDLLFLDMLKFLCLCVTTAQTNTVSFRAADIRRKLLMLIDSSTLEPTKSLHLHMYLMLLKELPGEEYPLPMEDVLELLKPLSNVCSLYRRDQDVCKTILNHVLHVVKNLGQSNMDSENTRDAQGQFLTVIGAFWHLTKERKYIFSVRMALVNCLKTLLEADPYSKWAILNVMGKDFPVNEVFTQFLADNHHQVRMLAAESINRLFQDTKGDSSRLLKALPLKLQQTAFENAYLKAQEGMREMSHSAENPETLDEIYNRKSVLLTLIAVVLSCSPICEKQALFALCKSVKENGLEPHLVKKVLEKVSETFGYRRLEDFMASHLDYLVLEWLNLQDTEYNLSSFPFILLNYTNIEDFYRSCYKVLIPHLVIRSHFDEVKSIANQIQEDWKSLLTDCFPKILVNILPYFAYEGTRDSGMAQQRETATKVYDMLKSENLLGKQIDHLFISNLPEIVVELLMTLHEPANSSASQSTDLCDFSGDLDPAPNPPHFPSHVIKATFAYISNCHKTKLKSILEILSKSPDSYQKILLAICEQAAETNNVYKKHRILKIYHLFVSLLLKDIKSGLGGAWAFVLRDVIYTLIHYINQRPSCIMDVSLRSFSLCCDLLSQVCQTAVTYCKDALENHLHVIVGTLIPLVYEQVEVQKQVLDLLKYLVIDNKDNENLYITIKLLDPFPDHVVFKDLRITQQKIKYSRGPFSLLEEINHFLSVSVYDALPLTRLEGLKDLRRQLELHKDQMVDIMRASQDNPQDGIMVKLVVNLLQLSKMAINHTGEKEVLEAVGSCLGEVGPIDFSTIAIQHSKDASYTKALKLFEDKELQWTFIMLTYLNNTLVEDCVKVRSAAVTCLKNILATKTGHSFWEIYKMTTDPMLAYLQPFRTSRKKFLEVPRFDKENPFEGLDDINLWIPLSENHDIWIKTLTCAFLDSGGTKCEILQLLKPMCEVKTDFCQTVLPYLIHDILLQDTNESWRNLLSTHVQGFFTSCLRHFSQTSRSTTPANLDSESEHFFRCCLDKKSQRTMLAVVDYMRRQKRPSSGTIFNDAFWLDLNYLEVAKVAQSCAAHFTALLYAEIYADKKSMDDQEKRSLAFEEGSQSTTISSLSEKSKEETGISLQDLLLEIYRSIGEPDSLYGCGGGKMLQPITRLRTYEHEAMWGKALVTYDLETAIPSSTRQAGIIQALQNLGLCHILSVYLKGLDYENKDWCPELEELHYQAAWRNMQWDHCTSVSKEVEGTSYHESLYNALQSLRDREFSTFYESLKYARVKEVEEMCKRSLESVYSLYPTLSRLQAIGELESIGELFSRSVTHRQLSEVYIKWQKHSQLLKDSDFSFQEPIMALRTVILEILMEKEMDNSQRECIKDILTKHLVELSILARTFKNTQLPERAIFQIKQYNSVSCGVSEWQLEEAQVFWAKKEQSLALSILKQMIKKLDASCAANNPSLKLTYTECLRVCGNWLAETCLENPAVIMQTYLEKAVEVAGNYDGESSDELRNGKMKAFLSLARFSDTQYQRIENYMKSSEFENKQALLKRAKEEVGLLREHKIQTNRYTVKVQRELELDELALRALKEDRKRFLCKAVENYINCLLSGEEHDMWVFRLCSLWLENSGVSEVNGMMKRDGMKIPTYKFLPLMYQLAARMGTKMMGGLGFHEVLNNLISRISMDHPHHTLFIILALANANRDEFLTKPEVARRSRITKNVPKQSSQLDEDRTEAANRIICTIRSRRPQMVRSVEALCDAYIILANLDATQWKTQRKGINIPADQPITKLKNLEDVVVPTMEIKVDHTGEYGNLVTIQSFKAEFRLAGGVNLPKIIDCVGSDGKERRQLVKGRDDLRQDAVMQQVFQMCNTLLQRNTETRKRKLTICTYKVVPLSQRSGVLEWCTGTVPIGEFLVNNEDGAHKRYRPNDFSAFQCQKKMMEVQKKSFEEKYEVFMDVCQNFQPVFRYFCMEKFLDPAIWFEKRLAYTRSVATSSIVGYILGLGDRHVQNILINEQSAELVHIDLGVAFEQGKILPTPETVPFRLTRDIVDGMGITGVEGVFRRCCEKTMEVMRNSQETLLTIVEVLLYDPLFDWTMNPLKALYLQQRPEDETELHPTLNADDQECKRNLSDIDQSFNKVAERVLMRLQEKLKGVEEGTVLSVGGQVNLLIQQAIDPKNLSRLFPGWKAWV
In short: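 NCI-H460 cells, compound 1 h pre-treatment, 8Gy IR, further 1 h at 37° C in 5% CO2. Read-out: phospho-Chk2 via AlphaScreen SureFire. % inhibition relative to IR-induced signal window (irradiated vs non-irradiated drug-free wells).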

| Compound | IC50 [nM] |
| --- | --- |
| CN(c1ccc2c(c1)Sc1cccc(-c3cc(N4CCOCC4)cc(=O)[nH]3)c1S2)C1CCCNC1 (stereo not shown) [Example 1-30, 6-(7-(methyl(piperidin-3-yl)amino)thianthren-1-yl)-4-morpholinopyridin-2(1H)-one] | 500 to 2000 |
| Cc1cnc(C(CF)Nc2ccc3c(c2)Cc2cccc(-c4cc(N5CCOCC5)cc(=O)[nH]4)c2O3)nc1 (stereo not shown) [Example 2-14-83, 6-(7-((2-Fluoro-1-(5-methylpyrimidin-2-yl)ethyl)amino)-9H-xanthen-4-yl)-4-morpholino pyridin-2(1H)-one] | 100 to 500 |
| COc1ccc(CCN2CCC(Nc3ccc4c(c3)Cc3ccc(F)c(-c5cc(N6CCOCC6)cc(=O)[nH]5)c3O4)CC2)cc1 [Example 2-47, 6-(3-Fluoro-7-((1-(4-methoxyphenethyl)piperidin-4-yl)amino)-9H-xanthen-4-yl)-4-morpholinopyridin-2(1H)-one] | 100 to 500 |
| COc1cnccc1CNc1ccc2c(c1)Cc1cccc(-c3cc(N4CCOCC4)cc(=O)[nH]3)c1O2 [Example 2-14-9, 6-(7-(((3-Methoxypyridin-4-yl)methyl)amino)-9H-xanthen-4-yl)-4-morpholino pyridin-2(1H)-one] | 100 to 500 |
| O=c1cc(N2CCOCC2)cc(-c2cccc3c2Oc2ccc(NCc4cncc(C5CCCC5)c4)cc2C3)[nH]1 [Example 2-2-66, 6-(7-(((5-Cyclopentylpyridin-3-yl)methyl)amino)-9H-xanthen-4-yl)-4-morpholino pyridin-2(1H)-one] | < 100 |
| O=c1cc(N2CCOCC2)cc(-c2cccc3c2Oc2ccc(NCc4ccnc(N5CCOCC5)n4)cc2C3)[nH]1 [Example 2-14-69, 4-Morpholino-6-(7-(((2-morpholinopyrimidin-4-yl)methyl)amino)-9H-xanthen-4-yl)pyridin-2(1H)-one] | 100 to 500 |
| O=c1cc(N2CCOCC2)cc(-c2cccc3c2Oc2ccc(NC4CCN(Cc5ccco5)CC4)cc2C3)[nH]1 [Example 2-28-27, 6-(7-((1-(Furan-2-ylmethyl)piperidin-4-yl)amino)-9H-xanthen-4-yl)-4-morpholino pyridin-2(1H)-one] | 100 to 500 |
| O=c1cc(N2CCOCC2)cc(-c2cccc3c2Sc2ccc(N[C@H](COCc4ccccc4)CN4CCOCC4)cc2S3)[nH]1 [Example 1-59-2, (S)-6-(7-((1-(benzyloxy)-3-morpholinopropan-2-yl)amino)thianthren-1-yl)-4-morpholinopyridin-2(1H)-one] | 100 to 500 |
| O=c1cc(N2CCOCC2)cc(-c2ccc(F)c3c2Oc2ccc(NCc4cccc(Cl)n4)cc2C3)[nH]1 [Example 2-44-1, 6-(7-(((6-Chloropyridin-2-yl)methyl)amino)-1-fluoro-9H-xanthen-4-yl)-4-morpholinopyridin-2(1H)-one] | 100 to 500 |
| O=c1cc(N2CCOCC2)cc(-c2cccc3c2Oc2ccc(NCc4cncc(-n5cncn5)c4)cc2C3)[nH]1 [Example 2-2-59, 6-(7-(((5-(1H-1,2,4-Triazol-1-yl)pyridin-3-yl)methyl)amino)-9H-xanthen-4-yl)-4-morpholino pyridin-2(1H)-one] | 100 to 500 |
| CC(Nc1ccc2c(c1)Cc1cccc(-c3cc(N4CCOCC4)cc(=O)[nH]3)c1O2)c1cccnc1 (racemic) [Example 2-11-1, 4-morpholino-6-(7-((1-(pyridin-3-yl)ethyl)amino)-9H-xanthen-4-yl)pyridin-2(1H)-one] | 100 to 500 |
| CC[C@@H](C(C)Nc1ccc2c(c1)Sc1cccc(-c3cc(N4CCOCC4)cc(=O)[nH]3)c1S2)N1CCOCC1 (stereo partly drawn) [Example 1-21-3, 4-Morpholino-6-(7-(((3S)-3-morpholinopentan-2-yl)amino)thianthren-1-yl) pyridin-2(1H)-one] | 100 to 500 |
| O=C(CN1C2CCC1COC2)Nc1ccc2c(c1)Sc1cccc(-c3cc(N4CCOCC4)cc(=O)[nH]3)c1S2 [Example 1-7-2, 2-(3-Oxa-8-azabicyclo[3.2.1]octan-8-yl)-N-(6-(4-morpholino-6-oxo-1,6-dihydropyridin-2-yl)thianthren-2-yl)acetamide] | 100 to 500 |
| CN(C)Cc1cc(CNc2ccc3c(c2)Cc2cccc(-c4cc(N5CCOCC5)cc(=O)[nH]4)c2O3)ccn1 [Example 2-21-8, 6-(7-(((2-((Dimethylamino)methyl)pyridin-4-yl)methyl)amino)-9H-xanthen-4-yl)-4-morpholino pyridin-2(1H)-one] | 500 to 2000 |
| O=c1cc(N2CCOCC2)cc(-c2cccc3c2Sc2ccc(NC4CCCN(C5CCCC5)C4)cc2S3)[nH]1 (stereo not shown) [Example 1-24-5, 6-(7-((1-Cyclopentylpiperidin-3-yl)amino)thianthren-1-yl)-4-morpholino pyridin-2(1H)-one] | 100 to 500 |
| CC(Nc1ccc2c(c1)Cc1cccc(-c3cc(N4CCOCC4)cc(=O)[nH]3)c1O2)c1cncc(Cl)c1 (stereo not shown) [Example 2-14-27, 6-(7-((1-(5-Chloropyridin-3-yl)ethyl)amino)-9H-xanthen-4-yl)-4-morpholino pyridin-2(1H)-one] | 100 to 500 |
| O=c1cc(N2CCOCC2)cc(-c2cccc3c2Oc2ccc(NCc4ccc(OC5CCOCC5)nc4)cc2C3)[nH]1 [Example 2-2-4, 4-Morpholino-6-(7-(((6-((tetrahydro-2H-pyran-4-yl)oxy)pyridin-3-yl)methyl)amino)-9H-xanthen-4-yl)pyridin-2 (1H)-one] | 500 to 2000 |
| CC(Nc1ccc2c(c1)Cc1cccc(-c3cc(N4CCOCC4)cc(=O)[nH]3)c1O2)c1cnc(N(C)C)cn1 (stereo not shown) [Example 2-14-53, 6-(7-((1-(5-(Dimethylamino)pyrazin-2-yl)ethyl)amino)-9H-xanthen-4-yl)-4-morpholino pyridin-2(1H)-one] | 100 to 500 |

Second part, the compound after the results:

| IC50 [nM] | Compound |
| --- | --- |
| 100 to 500 | CC(CN1CCN(Cc2cccnc2)CC1)Nc1ccc2c(c1)Sc1cccc(-c3cc(N4CCOCC4)cc(=O)[nH]3)c1S2 (stereo not shown) [Example 1-15-3, 4-Morpholino-6-(7-((1-(4-(pyridin-3-ylmethyl)piperazin-1-yl)propan-2-yl)amino)thianthren-1-yl)pyridin-2(1H)-one] |
| < 100 | COCCN1CCCC(Nc2ccc3c(c2)Sc2cccc(-c4cc(N5CCOCC5)cc(=O)[nH]4)c2S3)C1 (stereo not shown) [Example 1-26-2, 6-(7-((1-(2-Methoxyethyl)piperidin-3-yl)amino)thianthren-1-yl)-4-morpholinopyridin-2(1H)-one] |
| < 100 | Cc1cccc(C(CCN2CCCCC2)Nc2ccc3c(c2)Sc2cccc(-c4cc(N5CCOCC5)cc(=O)[nH]4)c2S3)n1 (stereo not shown) [Example 1-34-3, 6-(7-((1-(6-Methylpyridin-2-yl)-3-(piperidin-1-yl)propyl)amino)thianthren-1-yl)-4-morpholino pyridin-2(1H)-one] |
| 100 to 500 | CC(Nc1ccc2c(c1)Sc1cccc(-c3cc(N4CCOCC4)cc(=O)[nH]3)c1S2)C(=O)N1CCCC1C (stereo not shown) [Example 1-18-6] |
| 100 to 500 | Cc1nccc(C(C)Nc2ccc3c(c2)Sc2cccc(-c4cc(N5CCOCC5)cc(=O)[nH]4)c2S3)n1 (single isomer, unassigned) [Example 1-12-141-2, 6-(7-((1-(2-methylpyrimidin-4-yl)ethyl)amino)thianthren-1-yl)-4-morpholinopyridin-2(1H)-one] |
| 100 to 500 | Cc1ccc(C(Nc2ccc3c(c2)Sc2cccc(-c4cc(N5CCOCC5)cc(=O)[nH]4)c2S3)[C@@H]2CCCN2C)nc1 (single isomer, unassigned) [Example 1-56-2] |
| 100 to 500 | CNc1ccc(CNc2ccc3c(c2)Sc2cccc(-c4cc(N5CCOCC5)cc(=O)[nH]4)c2S3)cn1 [Example 1-12-8, 6-(7-(((6-(Methylamino)pyridin-3-yl)methyl)amino)thianthren-1-yl)-4-morpholino pyridin-2(1H)-one] |
| 100 to 500 | CC(CN1CCC(F)(F)C1)Nc1ccc2c(c1)Sc1cccc(-c3cc(N4CCOCC4)cc(=O)[nH]3)c1S2 (stereo not shown) [Example 1-43-7, 6-(7-((1-(3,3-Difluoropyrrolidin-1-yl)propan-2-yl)amino)thianthren-1-yl)-4-morpholino pyridin-2(1H)-one] |
| 100 to 500 | CN(C)C1CCC(Nc2ccc3c(c2)Sc2cccc(-c4cc(N5CCOCC5)cc(=O)[nH]4)c2S3)CC1 (stereo not shown) [Example 1-36-2, 6-(7-((4-(Dimethylamino)cyclohexyl)amino)thianthren-1-yl)-4-morpholinopyridin-2(1H)-one] |
| 100 to 500 | COc1ccncc1CNc1ccc2c(c1)Sc1cccc(-c3cc(N4CCOCC4)cc(=O)[nH]3)c1O2 [Example 4-8-10, 6-(8-(((4-Methoxypyridin-3-yl)methyl)amino)phenoxathiin-4-yl)-4-morpholino pyridin-2(1H)-one] |
| 100 to 500 | COc1ccc(CNc2ccc3c(c2)Sc2cccc(-c4cc(N5CCOCC5)cc(=O)[nH]4)c2S3)nc1 [Example 1-12-12, 6-(7-(((5-Methoxypyridin-2-yl)methyl)amino)thianthren-1-yl)-4-morpholino pyridin-2(1H)-one] |
| 500 to 2000 | CC(C(=O)Nc1ccc2c(c1)Sc1cccc(-c3cc(N4CCOCC4)cc(=O)[nH]3)c1S2)N1CCOCC1 (stereo not shown) [Example 1-8, 2-Morpholino-N-(6-(4-morpholino-6-oxo-1,6-dihydropyridin-2-yl)thianthren-2-yl)propanamide] |
| 100 to 500 | O=c1cc(N2CCOCC2)cc(-c2cccc3c2Sc2ccc(OCCN4CCOCC4)cc2S3)[nH]1 [Example 1-47, 4-Morpholino-6-(7-(2-morpholinoethoxy)thianthren-1-yl)pyridin-2(1H)-one] |
| 500 to 2000 | COCC(=O)N1CCC(Nc2ccc3c(c2)Sc2cccc(-c4cc(N5CCOCC5)cc(=O)[nH]4)c2S3)CC1 [Example 1-28, 6-(7-((1-(2-methoxyacetyl)piperidin-4-yl)amino)thianthren-1-yl)-4-morpholinopyridin-2(1H)-one] |
| 500 to 2000 | O=c1cc(N2CCOCC2)cc(-c2cccc3c2Sc2ccc(NC4CCCCC4Cl)cc2S3)[nH]1 (stereo not shown) [Example 1-12-72, 6-(7-((2-Chlorocyclohexyl)amino)thianthren-1-yl)-4-morpholino pyridin-2(1H)-one] |
| 500 to 2000 | CC(CN1CCO[C@@H](C)C1)Nc1ccc2c(c1)Sc1cccc(-c3cc(N4CCOCC4)cc(=O)[nH]3)c1S2 (stereo partly drawn) [Example 1-43-8, 6-(7-((4-((S)-2-Methylmorpholino)propan-2-yl)amino)thianthren-1-yl)-4-morpholino pyridin-2(1H)-one] |
